In PubChem BioAssay (NCI):
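Growth conditions: 96-well plates. Treatment: test compound, 48 hours, 5 concentrations. Analysis: linear interpolation between bracketing concentrations; unreached endpoints set to highest concentration. GI50 = concentration required for 50% inhibition of growth. TGI: total growth inhibition.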

Tested on: MDA-MB-468 breast
Test: NCI anticancer screen, dose series, 48 h

Row | Structure (SMILES) | GI50 | TGI
1 | CC(C)=CCc1c(O)c(C(=O)CC(C)C)c(O)c2c(-c3ccccc3)cc(=O)oc12 | 7.74 µM | 36.2 µM
2 | CCCCCC(=C/c1ccccc1)/C=N/N=C(N)N | 1.56 µM | 3 µM
3 | O=S(=O)(NCCNc1cc(-c2cn(-c3ccccc3)nc2-c2cccc(O)c2)ccn1)c1ccc(Br)cc1 | 2.7 µM | 7.79 µM
4 | COc1ccc(-c2cc(-c3ccc(Cl)cc3)nc(SCCCCCCC(=O)NO)n2)cc1 | 1.64 µM | 7.19 µM
5 | CCN(CC)CCOc1ccc(Cc2ccccc2)cc1 | 16.2 µM | 41.2 µM
6 | CN1CCN(Cc2ccc(NC(=O)c3cccc(C#Cc4c(N)ncc5ccc(F)cc45)c3)cc2C(F)(F)F)CC1 | 0.888 µM | 1.83 µM
7 | NC(Cc1c[nH]c2cc(F)ccc12)C(=O)O (stereo not given) | 1010 µM | > 2500 µM
8 | Cc1ccc2c(n1)C(=O)C(Cl)=C(Nc1ccc(C#N)cc1)C2=O | 1.78 µM | 3.81 µM
9 | CN1CCN(c2ccc(-c3cccc(CN4CCOCC4)c3)cc2NC(=O)c2c[nH]c(=O)cc2C(F)(F)F)CC1 | 20.2 µM | 92.5 µM
10 | O=C1CCC(N2C(=O)c3cccc(NCCOCCOCCNC(=O)c4cc5c(o4)C(=O)c4ccccc4C5=O)c3C2=O)C(=O)N1 (stereo not given) | 1.46 µM | 3.88 µM
11 | C=C(C)[C@@H]1CC[C@]2(CN)CC[C@]3(C)[C@H](CC[C@@H]4[C@@]5(C)CCC(N)[C@@](C)(CO)[C@@H]5CC[C@]43C)[C@@H]12 (stereo not given in full) | 1.77 µM | 3.42 µM
12 | COc1c2occc2cc2ccc(=O)oc12 | > 100 µM | > 100 µM
13 | COCC(=O)NC/C=C/c1ccc2ncnc(Nc3ccc(Oc4ccc(C)nc4)c(C)c3)c2c1 | 1.96 µM | 10.3 µM
14 | CCCCCCCCCCCCC(NC(C)=O)(C(=O)OCC)C(=O)OCC | 4.67 µM | 18.6 µM
15 | CCCCCCCCCC[N+](C)(C)C | 0.43 µM | 2.79 µM
16 | C[C@@]1(O)CCC[C@H]1n1c(=O)c(C(F)F)cc2cnc(NC3CCN(S(C)(=O)=O)CC3)nc21 | 1.61 µM | 4.76 µM
17 | CCCc1n(Cc2ccc3ccccc3n2)cc[n+]1Cc1ccc2ccccc2c1 | 0.273 µM | 1.49 µM
18 | COc1ccc(C(=O)c2cc(C)c(OC)c(C)c2)c(OC)c1N(C(=O)CCl)C(=O)CCl | 0.0296 µM | 1.37 µM

Row | Structure (SMILES) | GI50 | TGI
19 | C=C1C(=O)O[C@H]2[C@H]1CC/C(Cn1cc(-c3ccsc3)nn1)=C\CC[C@@]1(C)O[C@@H]21 | 1.28 µM | 3.56 µM
20 | COC(=O)[C@H](Cc1cn(C)cn1)NC(=O)[C@@H](NC(=O)Nc1cc(C(F)(F)F)cc(C(F)(F)F)c1)C(C)(C)C | > 10 µM | > 10 µM
21 | Clc1ccc(COC(Cn2ccnc2)c2ccc(Cl)cc2Cl)c(Cl)c1 (stereo not given) | 1.84 µM | 5.13 µM
22 | CC(=Nc1ccccc1)C1=C(O)C(Cc2ccc(F)cc2)NC1=O (stereo not given) | 0.382 µM | 5.22 µM
23 | O=C(Nc1ccc(-n2ccc3c(NC(=O)c4ccccc4)nccc32)cc1)c1ccc(N2CCOCC2)c(C(F)(F)F)c1 | 1.74 µM | 19.2 µM
24 | COC(=O)CCCNC(=O)C(=O)c1c(O)c(O)c(C(C)C)c2cc(C)c(-c3c(C)cc4c(C(C)C)c(O)c(O)c(C(=O)C(=O)NCCCC(=O)OC)c4c3O)c(O)c12 | 0.364 µM | 2.97 µM
25 | CCCC(=O)Nc1c(I)cc(I)c(CC(CC)C(=O)O)c1I (stereo not given) | > 100 µM | > 100 µM
26 | N#Cc1ccc(NC(=O)Nc2nc3ccc(OC(F)(F)F)cc3s2)cc1 | 0.46 µM | 4.84 µM
27 | Cc1ccccc1C[P+](c1ccccc1)(c1ccccc1)c1ccccc1 | 0.265 µM | 1.16 µM
28 | C[C@@H]1OC(=O)NN=C1c1ccc(-c2ccc(F)cc2)c(C(F)(F)F)c1 | 1.74 µM | 6.61 µM
29 | C#C[C@]1(O)CC[C@H]2[C@@H]3CC=C4c5sc(Nc6ccc(C)cn6)nc5CC[C@]4(C)[C@H]3CC[C@@]21C | 1.07 µM | 3.13 µM
30 | C#CCOc1ccc(-c2csc(NC(=O)C=C)n2)cc1NS(=O)(=O)c1cccc2c(N(C)C)cccc12 | 0.823 µM | 1.71 µM
31 | Cc1nc2ccccc2c(/C=C/c2ccccc2)c1C(=O)/C=C/c1ccccc1 | 1.79 µM | 3.5 µM
32 | COC1C(O)CC(OC2CC(OC3CC(O[C@@H]4C(=O)c5c(cc6cc(OC7CC(OC8CC(O)C(O)C(C)O8)C(O)C(C)O7)c(C)c(O)c6c5O)CC4[C@H](OC)[C@@H](O)C(C)=O)OC(C)C3O)OC(C)C2O)OC1C (stereo not given in full) | 0.0256 µM | 2.65 µM
33 | Cc1cc(C)c(O)c(CNCCCNCc2cc(C)cc(C)c2O)c1 | 1.69 µM | 3.24 µM
34 | CC[C@]12C=CCN3CC[C@@]4(c5cc(NC(=O)COc6cc(O)c7c(=O)cc(-c8ccccc8)oc7c6)c(OC)cc5N(C)[C@H]4[C@@](O)(C(=O)OC)[C@@H]1OC(C)=O)[C@@H]32 | 1.52 µM | 3 µM
35 | O=C(Nc1ccc(N2CCNCC2)cn1)c1[nH]ncc1Nc1ncnc2sccc12 | 1.69 µM | 3.42 µM
